Test results as given in patent US10071095B2, “1,2,4-triazolo [4,3-A] pyridine derivatives and their use for the treatment of neurological and psychiatric disorders” (JANSSEN PHARMACEUTICALS, INC., priority 2009, dated 2018).

Target: T1, human mGluR2 receptor (Homo sapiens, UniProt Q14416)
T1 construct: expressed in transfected cells; host or cells: CHO cells
Experiment: [35S]GTPγS binding assay, positive allosteric modulation (GTPγS-PAM) in presence of EC20 glutamate
Type: biochemical
Details: in presence of glutamate at EC20; average pEC50 if more experiments; ‡ means tested once
Experimental: [^35S]GTPγS Binding Assay
The [^35S]GTPγS binding assay is a functional membrane-based assay used to study G-protein coupled receptor (GPCR) function whereby incorporation of a non-hydrolysable form of GTP, [^35S]GTPγS (guanosine 5′-triphosphate, labelled with […] ^35S), is measured. The G-protein α subunit catalyzes the exchange of guanosine 5′-diphosphate (GDP) by guanosine triphosphate (GTP) and on activation of the GPCR by an agonist, [^35S]GTPγS, becomes incorporated and cannot be cleaved to continue the exchange cycle (Harper (1998) Current Protocols in Pharmacology 2.6.1-10, John Wiley & Sons, Inc.). […] Here we describe the use of the [^35S]GTPγS binding assay using membranes from cells transfected with the human mGluR2 receptor and adapted from Schaffhauser et al. ((2003) Molecular Pharmacology 4:798-810) for the detection of the positive allosteric modulation (PAM) properties of the compounds of this invention.
CHO-cells were cultured to pre-confluence and stimulated with 5 mM butyrate for 24 h, prior to washing in PBS, and then collected by scraping in homogenisation buffer (50 mM Tris-HCl buffer, pH 7.4, 4° C.). Cell lysates were homogenized briefly using an ultra-turrax homogenizer. The homogenate was centrifuged at 16,000 RPM (Sorvall RC-5C plus rotor SS-34) for 10 minutes and the supernatant discarded. The pellet was resuspended in 5 mM Tris-HCl, pH 7.4 and centrifuged again (18,000 RPM, 20 min, 4° C.). The final pellet was resuspended in 50 mM Tris-HCl, pH 7.4 and stored at −80° C. in appropriate aliquots before use. Protein concentration was determined by the Bradford method (Bio-Rad, USA) with bovine serum albumin as standard.
Measurement of mGluR2 positive allosteric modulatory activity of test compounds was performed as follows. Test compounds and glutamate were diluted in assay buffer containing 10 mM HEPES acid, 10 mM HEPES salt, pH 7.4, 100 mM NaCl, 3 mM MgCl2 and 10 μM GDP. Human mGlu2 receptor-containing membranes were thawed on ice and diluted in assay buffer supplemented with 14 μg/ml saponin. Membranes were pre-incubated with compound alone or together with a predefined (˜EC20) concentration of glutamate (PAM assay) for 30 min at 30° C. After addition of [^35S]GTPγS (f.c. 0.1 nM) microplates were shaken briefly and further incubated to allow [^35S]GTPγS incorporation on activation (30 minutes, 30° C.). Final assay mixtures contained 7 μg of membrane protein in 10 mM HEPES acid, 10 mM HEPES salt, pH 7.4, 100 mM NaCl, 3 mM MgCl2, 10 µM GDP and 10 μg/ml saponin. Total reaction volume was 200 μl. Reactions were terminated by rapid filtration through Unifilter-96 GF/B filter plates (Packard, Meriden, Conn.) using a 96-well Packard filtermate harvester. Filters were washed 6 times with ice-cold 10 mM NaH2PO4/10 mM Na2HPO4, pH 7.4. Filters were then air-dried, and 40 μl of liquid scintillation cocktail (Microscint-O) was added to each well. Membrane-bound radioactivity was counted in a Microplate Scintillation and Luminescence Counter from Packard.
The concentration-response curves of representative compounds of the present invention-obtained in the presence of EC20 of mGluR2 agonist glutamate to determine positive allosteric modulation (PAM)—were generated using the Lexis software interface (developed at J&J).

T1 sequence (Q14416 19-872): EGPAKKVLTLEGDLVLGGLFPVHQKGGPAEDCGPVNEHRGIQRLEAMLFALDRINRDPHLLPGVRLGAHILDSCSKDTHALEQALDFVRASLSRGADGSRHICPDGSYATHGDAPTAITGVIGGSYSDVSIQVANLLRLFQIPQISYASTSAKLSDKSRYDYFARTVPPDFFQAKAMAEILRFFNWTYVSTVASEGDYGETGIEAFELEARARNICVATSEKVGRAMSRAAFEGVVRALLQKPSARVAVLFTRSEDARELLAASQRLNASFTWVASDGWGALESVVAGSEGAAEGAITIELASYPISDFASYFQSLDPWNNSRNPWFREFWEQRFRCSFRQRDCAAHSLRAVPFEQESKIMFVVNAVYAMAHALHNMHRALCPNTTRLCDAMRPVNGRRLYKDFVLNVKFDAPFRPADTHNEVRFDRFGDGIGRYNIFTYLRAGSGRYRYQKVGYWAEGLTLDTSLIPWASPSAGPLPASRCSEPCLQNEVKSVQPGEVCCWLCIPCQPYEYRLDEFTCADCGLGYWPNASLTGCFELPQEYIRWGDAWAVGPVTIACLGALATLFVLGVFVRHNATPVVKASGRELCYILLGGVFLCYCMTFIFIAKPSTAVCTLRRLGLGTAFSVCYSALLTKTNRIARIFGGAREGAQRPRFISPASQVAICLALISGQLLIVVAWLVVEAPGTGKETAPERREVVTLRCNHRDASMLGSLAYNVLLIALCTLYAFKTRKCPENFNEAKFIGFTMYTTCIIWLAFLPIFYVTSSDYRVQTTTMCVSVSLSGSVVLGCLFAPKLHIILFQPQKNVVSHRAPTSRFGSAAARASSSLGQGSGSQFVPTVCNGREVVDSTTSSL

| Structure (SMILES) | GTPγS - hR2 PAM pEC50 |
| --- | --- |
| FC(F)(F)c1c(N2CCN(c3ncccn3)CC2)ccn2c(CC3CC3)nnc12 [compound 64] | 6.65 |
| CCCc1nnc2c(C(F)(F)F)c(N3CCC(c4ccccc4)CC3)ccn12 [compound 67] | 7.36 |
| Cc1cccnc1OC1CCN(c2ccn3c(CC4CC4)nnc3c2C(F)(F)F)CC1 [compound 68] | 7.55 |
| CC1(C)CN(c2ccn3c(CC4CC4)nnc3c2C(F)(F)F)CCN1c1ccccc1 [compound 72] | 7.06 |
| N#Cc1c(N2CCN(C3CCC(C(F)(F)F)CC3)CC2)ccn2c(CC(F)(F)F)nnc12 (stereo not shown) [compound 73] | 6.13 |
| CC(C)Cc1nnc2c(C#N)c(N3CCC(c4ccccc4)CC3)ccn12 [compound 74] | 6.85 |
| FC(F)(F)c1c(N2CCC3(CC2)OCc2ccccc23)ccn2c(CC3CC3)nnc12 [compound 77] | 7.68‡ |
| FC(F)(F)c1c(N2CCC3(CC2)COc2ccccc2O3)ccn2c(CC3CC3)nnc12 [compound 79] | 7.28 |
| FC(F)(F)c1c(N2CCC(F)(c3ccccc3)CC2)ccn2c(COCC3CC3)nnc12 [compound 80] | 7.27 |
| CCCc1nnc2c(C(F)(F)F)c(N3CCC4(CC3)COc3ccccc34)ccn12 [compound 87] | 6.94 |
| CCCc1nnc2c(Cl)c(N3CCC4(CC3)COc3ccccc34)ccn12 [compound 88] | 6.18 |
| CCc1nnc2c(C(F)(F)F)c(N3CCC4(CC3)COc3ccccc34)ccn12 [compound 89] | 6.46‡ |
| COc1cnc(N2CCN(c3ccn4c(CC5CC5)nnc4c3C(F)(F)F)CC2)nc1 [compound 90] | 6.61 |
| COc1cccnc1N1CCN(c2ccn3c(CC4CC4)nnc3c2C(F)(F)F)CC1 [compound 92] | 6.87 |
| CCCc1nnc2c(Cl)c(N3CCC4(CC3)OCc3ccccc34)ccn12 [compound 93] | 6.53 |
| Clc1c(N2CCN(c3ccccc3)CC2)ccn2c(CC3CC3)nnc12 [compound 99] | 6.03 |
| FC(F)(F)Cc1nnc2c(Cl)c(N3CCN(c4ccccc4)CC3)ccn12 [compound 101] | 6.24 |
| CCc1nnc2c(Cl)c(N3CCC4(CC3)OCc3ccccc34)ccn12 [compound 102] | 6.5 |

| Structure (SMILES) | GTPγS - hR2 PAM pEC50 |
| --- | --- |
| CC1(C)OC2(CCN(c3ccn4c(CC5CC5)nnc4c3Cl)CC2)c2ccccc21 [compound 104] | 7.7 |
| CC1(C)CN(c2ccn3c(CC4CC4)nnc3c2Cl)CCN1c1ccccc1 [compound 105] | 6.17‡ |
| CCCc1nnc2c(Cl)c(N3CCC4(CC3)OC(C)(C)c3ccccc34)ccn12 [compound 107] | 7.22 |
| Fc1cccc2c1COC21CCN(c2ccn3c(CC4CC4)nnc3c2C(F)(F)F)CC1 [compound 109] | 7.29 |
| CCCc1nnc2c(C(F)(F)F)c(N3CCC4(CC3)OCc3c(F)cccc34)ccn12 [compound 110] | 6.86 |
| COc1cnc(C2CCN(c3ccn4c(CC5CC5)nnc4c3C(F)(F)F)CC2)nc1 [compound 111] | 6.26 |
| CCCc1nnc2c(C(F)(F)F)c(N3CCC4(CC3)OC(C)(C)c3ccccc34)ccn12 [compound 113] | 7.59 |
| FC(F)(F)c1c(N2CCc3ccccc3C2)ccn2c(CC3CC3)nnc12 [compound 118] | 6.83 |
| N#Cc1c(N2CCC(c3ccccc3)(C(F)(F)F)CC2)ccn2c(CC3CC3)nnc12 [compound 120] | 6.31 |
| FC(F)(F)c1c(N2CCC(Oc3ccccn3)CC2)ccn2c(CC3CC3)nnc12 [compound 124] | 6.98 |
| FC(F)(F)c1c(N2CCC(Oc3ccccn3)CC2)ccn2c(CCC3CC3)nnc12 [compound 129] | 6.92 |
| FC(F)(F)c1c(N2Cc3ccccc3C2)ccn2c(CC3CC3)nnc12 [compound 130] | 6.4 |
| CC1(c2ccccc2)CCN(c2ccn3c(CC4CC4)nnc3c2Cl)CC1 [compound 133] | 7.05 |
| FC(F)(F)c1c(N2CC(c3ccccc3)C2)ccn2c(CC3CC3)nnc12 [compound 137] | 6.87 |
| FC1(c2ccccc2)CCN(c2ccn3c(CCC4CC4)nnc3c2Cl)CC1 [compound 140] | 6.55 |
| CCOCc1nnc2c(C(F)(F)F)c(N3CCC(F)(c4ccccc4)CC3)ccn12 [compound 141] | 6.95 |
| CCCc1nnc2c(C(F)(F)F)c(N3CCC4(CC3)OC(F)(F)c3ccccc34)ccn12 [compound 142] | 6.55‡ |
| CC(C)OCc1nnc2c(Cl)c(N3CCC(c4ccccc4)(C(F)(F)F)CC3)ccn12 [compound 144] | 6.25 |

Second part, the molecule after the results:

| GTPγS - hR2 PAM pEC50 | Structure (SMILES) |
| --- | --- |
| 8.41 | COc1cccc(F)c1C1CCN(c2ccn3c(CC(F)(F)F)nnc3c2Cl)CC1 [compound 65] |
| 6.65‡ | FC(F)(F)CCc1nnc2c(Cl)c(N3CCC(c4ccccc4)CC3)ccn12 [compound 71] |
| 7.51 | CCOCc1nnc2c(Cl)c(N3CCC(c4ccccc4OC)CC3)ccn12 [compound 82] |
| 7.64 | CCOCc1nnc2c(Cl)c(N3CCC(c4cc(F)ccc4OC)CC3)ccn12 [compound 83] |
| 7.86 | CCOCc1nnc2c(Cl)c(N3CCC(c4c(OC)ccc(F)c4F)CC3)ccn12 [compound 84] |
| 8.06 | CCOCc1nnc2c(Cl)c(N3CCC(c4c(F)cc(F)cc4OC)CC3)ccn12 [compound 85] |
| 7.95 | CCOCc1nnc2c(Cl)c(N3CCC(c4c(F)ccc(F)c4OC)CC3)ccn12 [compound 86] |
| 7.27 | COc1cccnc1C1CCN(c2ccn3c(CC4CC4)nnc3c2C(F)(F)F)CC1 [compound 91] |
| 5.93‡ | CCCc1nnc2c(Cl)c(N3CCN(c4ccc(F)cc4F)CC3)ccn12 [compound 95] |
| 5.63‡ | CCOCc1nnc2c(Cl)c(N3CCN(c4ccccc4)C(C)(C)C3)ccn12 [compound 103] |
| 6.45 | CCCc1nnc2c(Cl)c(N3CCC4(CC3)OCc3c(F)cccc34)ccn12 [compound 106] |
| 6.91‡ | Cl.Fc1cccc2c1COC21CCN(c2ccn3c(CC4CC4)nnc3c2Cl)CC1 [compound 108] |
| 6.33 | FC(F)(F)Cc1nnc2c(Cl)c(N3CCC(Oc4ccccn4)CC3)ccn12 [compound 114] |
| 6.68 | Fc1cccc(C2(C(F)(F)F)CCN(c3ccn4c(CC5CC5)nnc4c3Cl)CC2)c1 [compound 117] |
| 7.3 | CC(C)OCc1nnc2c(C(F)(F)F)c(N3CCC(c4ccccc4)CC3)ccn12 [compound 122] |
| 6.42 | CC(C)OCc1nnc2c(Cl)c(N3CCC(F)(c4ccccc4)CC3)ccn12 [compound 127] |
| 6.68 | CCOCc1nnc2c(C(F)(F)F)c(N3CCC(Oc4ccccn4)CC3)ccn12 [compound 132] |
| 7.17 | CCOCc1nnc2c(C(F)(F)F)c(N3CCC(Oc4ncccc4C)CC3)ccn12 [compound 134] |
| 6.77 | CC(C)OCc1nnc2c(Cl)c(N3CCC(c4ccccc4)CC3)ccn12 [compound 135] |
| 7.69‡ | CCOCc1nnc2c(C(F)(F)F)c(N3CCC(c4ccccc4)CC3)ccn12 [compound 136] |

Same assay, conditions: in presence of glutamate at EC20; average pEC50 if more experiments; ‡ means tested once; read-out: GTPγS - hR2 PAM pEC50 (converted)

| EC50 [nM] | Structure (SMILES) |
| --- | --- |
| 1740 | FC(F)(F)c1c(N2CCC3(CC2)COc2ncccc23)ccn2c(CC3CC3)nnc12 [compound 119, 1′-[3-cyclopropylmethyl-8-(trifluoromethyl)[1,2,4]triazolo[4,3-a]pyridin-7-yl]-spiro[furo[2,3-b]pyridine-3(2H),4′-piperidine]] |
| 4.37 | CC1(C)OC2(CCN(c3ccn4c(CC(F)(F)F)nnc4c3Cl)CC2)c2ccccc21 [compound 139] |
